Laboratory results as given in US8901315B2, “Thienopyrazole derivative having PDE7 inhibitory activity” (Daiichi Sankyo Company, Limited, priority 2004, dated 2014).

Key:
[1] = target: PDE 7 (phosphodiesterase VII) (Homo sapiens (Human), UniProt Q13946); assay: PDE 7 inhibiting effect (3H-cAMP hydrolysis, PDE 7 active fraction from MOLT-4 cells); assay type: biochemical; conditions: PDE 7 fraction from MOLT-4 cells, 0.064 μM cAMP, 10 μM rolipram, 2 hours at 25° C.; read-out: PDE7 IC50
Outline: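 PDE7 taken from the soluble fraction of human MOLT-4 T cells (homogenised in pH 7.5 Tris buffer, 100,000×G spin), partially purified on HiTrap Q with a 0–0.8 M NaCl gradient. Inhibition measured as ³H-cAMP hydrolysis, with product separated using Sephadex-QAE in 10 mM HEPES-Na pH 7.0.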

[2] = target: PDE 4 (phosphodiesterase IV); assay: PDE 4 inhibiting effect (3H-cAMP hydrolysis, PDE 4 active fraction from Balb/c mouse liver); assay type: biochemical; conditions: PDE 4 fraction from Balb/c mice liver, 0.064 μM cAMP, 2 hours at 25° C.; read-out: PDE4 IC50
Outline: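 PDE4 was taken from the soluble liver fraction of male Balb/c mice (12 weeks), purified on DEAE sepharose with a sodium acetate gradient. Inhibition was measured as hydrolysis of 3H-cAMP. The reaction was followed by Sephadex-QAE treatment in HEPES-Na pH 7.0.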

Chain of PDE 7 (phosphodiesterase VII) (Q13946 whole entry): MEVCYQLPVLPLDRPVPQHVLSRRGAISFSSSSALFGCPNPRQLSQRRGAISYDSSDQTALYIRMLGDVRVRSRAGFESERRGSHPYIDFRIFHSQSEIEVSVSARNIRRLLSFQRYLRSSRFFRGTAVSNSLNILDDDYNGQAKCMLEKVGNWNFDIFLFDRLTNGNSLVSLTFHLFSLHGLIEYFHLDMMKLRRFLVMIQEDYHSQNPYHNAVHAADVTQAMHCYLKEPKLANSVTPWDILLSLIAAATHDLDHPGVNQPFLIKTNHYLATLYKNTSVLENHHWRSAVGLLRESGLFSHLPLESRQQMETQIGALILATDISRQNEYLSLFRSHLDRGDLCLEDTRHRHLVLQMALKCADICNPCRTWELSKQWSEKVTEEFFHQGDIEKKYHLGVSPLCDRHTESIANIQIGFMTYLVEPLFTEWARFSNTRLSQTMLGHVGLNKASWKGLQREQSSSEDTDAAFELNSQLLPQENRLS

With `Cc1nn(C2CCOCC2)c2sc(C(=O)Nc3ccc(N4C(=O)CN(C)C4=O)cc3)cc12` [Example 260, 3-Methyl N-[4-(3-methyl-2,5-dioxo-1-imidazolidinyl)phenyl]-1-tetrahydro-2H-pyran-4-yl-1H-thieno[2,3-c]pyrazole-5-carboxamide] as the compound, how does the IC50 [1] read?
The IC50 was 37 nM.

What about the IC50 [2] of the same compound?
The IC50 was 4500 nM.

How did the IC50 [1] turn out when `Cc1nn(C2CCOCC2)c2sc(C(=O)Nc3ccc(N4CCNC4=O)nc3)cc12` [Example 261] was run?
The IC50 was 28 nM.

And the IC50 [2]?
The IC50 was 1900 nM.

With `Cc1nn(C2CCCCC2)c2sc(C(=O)Nc3ccc(N4CC[C@@H](O)C4)cc3)cc12` [Example 262, 1-Cyclohexyl-N-{4-[(3R)-3-hydroxypyrrolidinyl]phenyl}-3-methyl-1H-thieno[2,3-c]pyrazole-5-carboxamide] as the compound, how does the IC50 [1] read?
Its IC50 is 28 nM.

What about the IC50 [2] of the same compound?
The IC50 was 3800 nM.

Which results are given for `Cc1nn(C2CCCCC2)c2sc(C(=O)Nc3ccc(N4CC[C@@H](O)C4)c(F)c3)cc12` [Example 263, 1-Cyclohexyl-N-{3-fluoro-4-[(3R)-3-hydroxypyrrolidinyl]phenyl}-3-methyl-1H-thieno[2,3-c]pyrazole-5-carboxamide]?
IC50 [1]: 54 nM; IC50 [2]: 3500 nM

What does the source list for `Cc1nn(C2CCCCC2)c2sc(C(=O)Nc3cccc(S(=O)(=O)N4CCC(O)CC4)c3)cc12` [Example 264, 1-Cyclohexyl-N-{3-[(4-hydroxy-1-piperidinyl)sulfonyl]phenyl}-3-methyl-1H-thieno[2,3-c]pyrazole-5-carboxamide]?
IC50 [1]: 81 nM; IC50 [2]: 6300 nM

With `Cc1nn(C2CCOCC2)c2sc(C(=O)Nc3ccc(N4CCC(O)CC4)c(F)c3)cc12` [Example 268, N-[3-Fluoro-4-(4-hydroxy-piperidinyl)phenyl]-3-methyl-1-tetrahydro-2H-pyran-4-yl-1H-thieno[2,3-c]pyrazole-5-carboxamide] as the compound, how does the IC50 [1] read?
Its IC50 is 88 nM.

And the IC50 [2]?
Its IC50 is 4800 nM.

What does the source list for `Cc1nn(C2CCCCC2)c2sc(C(=O)N[C@H]3CC[C@H](N4CCOC4=O)CC3)cc12` [Example 270, 1-Cyclohexyl-3-methyl-N-[trans-4-(2-oxo-1,3-oxazolidin-3-yl)-cyclohexyl]-1H-thieno[2,3-c]pyrazole-5-carboxamide]?
IC50 [1]: 15 nM; IC50 [2]: 1800 nM

Which IC50 [1] does the source give for `Cc1nn(C2CCCCC2)c2sc(C(=O)N[C@H]3CC[C@H](N4CCNC4=O)CC3)cc12` [Example 271, 1-Cyclohexyl-3-methyl-N-[trans-4-(2-oxo-1-imidazolidinyl)-cyclohexyl]-1H-thieno[2,3-c]pyrazole-5-carboxamide] here?
Its IC50 is 8.9 nM.

What about the IC50 [2] of the same compound?
Its IC50 is 2100 nM.

Which results are given for `Cc1nn(C2CCCCC2)c2sc(C(=O)N[C@H]3CC[C@H](N4C(=O)CCC4=O)CC3)cc12` [Example 273, 1-Cyclohexyl-N-[trans-4-(2,5-dioxo-1-pyrrolidinyl)cyclohexyl]-3-methyl-1H-thieno[2,3-c]pyrazole-5-carboxamide]?
IC50 [1]: 14 nM; IC50 [2]: 1600 nM

`Cc1nn(C2CCCCC2)c2sc(C(=O)N[C@H]3CC[C@H](N4CCCS4(=O)=O)CC3)cc12` [Example 274, 1-Cyclohexyl-N-[trans-(1,1-dioxide-2-isothiazolidinyl)cyclohexyl]-3-methyl-1H-thieno[2,3-c]pyrazole-5-carboxamide] was tested. Which IC50 [1] did it give?
Its IC50 is 9.9 nM.

What about the IC50 [2] of the same compound?
The IC50 was 1700 nM.

How did the IC50 [1] turn out when `Cc1nn(C2CCCCC2)c2sc(C(=O)N[C@H]3CC[C@H](NC(=O)N(C)CC(=O)OCc4ccccc4)CC3)cc12` [Example 275, Benzyl [{[(trans-4-{[(1 cyclohexyl-3-methyl-1H-thieno[2,3-c]pyrazol-5-yl)carbonyl]amino}cyclohexyl)amino]carbonyl}(methyl)amino]acetate] was run?
Its IC50 is 4 nM.

What about the IC50 [2] of the same compound?
The IC50 was 1200 nM.

Which results are given for `Cc1nn(C2CCCCC2)c2sc(C(=O)NCCN3C(=O)CN(C)C3=O)cc12` [Example 277, 1-Cyclohexyl-3-methyl-N-[2-(3-methyl-2,5-dioxo-1-imidazolidinyl)-ethyl]-1H-thieno[2,3-c]pyrazole-5-carboxamide]?
IC50 [1]: 32 nM; IC50 [2]: 7800 nM

With `Cc1nn(C2CCCCC2)c2sc(C(=O)N[C@H]3CC[C@H](N4CCN(C)C4=O)CC3)cc12` [Example 280] as the compound, how does the IC50 [1] read?
The IC50 was 17 nM.

What about the IC50 [2] of the same compound?
Its IC50 is 1900 nM.

For `Cc1nn(C2CCCCC2)c2sc(C(=O)NCCN3CCN(C)C3=O)cc12` [Example 302, 1-Cyclohexyl-3-methyl-N-[2-(3-methyl-2-oxo-imidazolidinyl)ethyl]-1H-thieno[2,3-c]pyrazole-5-carboxamide], which IC50 [1] is on record?
The IC50 was 60 nM.

What about the IC50 [2] of the same compound?
The IC50 was 6100 nM.

With `Cc1nn(C2CCCCC2)c2sc(C(=O)NCCN3C(=O)CNC3=O)cc12` [Example 305, 1-Cyclohexyl-N-[2-(2,5-dioxo-1-imidazolidinyl)ethyl]-3-methyl-1H-thieno[2,3-c]pyrazole-5-carboxamide] as the compound, how does the IC50 [1] read?
Its IC50 is 66 nM.

And the IC50 [2]?
The IC50 was 6800 nM.

Which results are given for `CCN1C(=O)CN(CCNC(=O)c2cc3c(C)nn(C4CCCCC4)c3s2)C1=O` [Example 316, 1-Cyclohexyl-N-[2-(3-ethyl-2,4-dioxo-1-imidazolidinyl)ethyl]-3-methyl-1H-thieno[2,3-c]pyrazole-5-carboxamide]?
IC50 [1]: 97 nM; IC50 [2]: 15000 nM

Which results are given for `Cc1nn(C2CCCCC2)c2sc(C(=O)NCCN3CC(=O)N(C)C3=O)cc12` [Example 317, 1-Cyclohexyl-3-methyl-N-[2-(3-methyl-2,4-dioxo-1-imidazolidinyl)-ethyl]-1H-thieno[2,3-c]pyrazole-5-carboxamide]?
IC50 [1]: 67 nM; IC50 [2]: 12000 nM

With `Cc1nn(C2CCCCC2)c2sc(C(=O)N[C@H](C)CN3C(=O)CNC3=O)cc12` [Example 325, 1-Cyclohexyl-N-[(1R)-2-(2,5-dioxo-1-imidazolidinyl)-1-methylethyl]-3-methyl-1H-thieno[2,3-c]pyrazole-5-carboxamide] as the compound, how does the IC50 [1] read?
Its IC50 is 34 nM.

What about the IC50 [2] of the same compound?
Its IC50 is 4000 nM.

What does the source list for `CC[C@H](CN1C(=O)CNC1=O)NC(=O)c1cc2c(C)nn(C3CCCCC3)c2s1` [Example 331, 1-Cyclohexyl-N-{(1R)-1-[(2,5-dioxo-1-imidazolidinyl)methyl]propyl}-3-methyl-1H-thieno[2,3-c]pyrazole-5-carboxamide]?
IC50 [1]: 29 nM; IC50 [2]: 4900 nM

Which IC50 [1] does the source give for `Cc1nn(C2CCCCC2)c2sc(C(=O)NCC(C)(C)CN3C(=O)CNC3=O)cc12` [Example 339, 1-Cyclohexyl-N-[3-(2,5-dioxo-1-imidazolidinyl)-2,2-dimethylpropyl]-3-methyl-1H-thieno[2,3-c]pyrazole-5-carboxamide] here?
Its IC50 is 20 nM.

And the IC50 [2]?
Its IC50 is 5100 nM.

For `Cc1nn(C2CCCCC2)c2sc(C(=O)Nc3ccc(N4CCNC(=O)C4)cc3)cc12` [Example 341, 1-Cyclohexyl-3-methyl-N-[4-(3-oxo-1-piperazinyl)phenyl]-1H-thieno[2,3-c]pyrazole-5-carboxamide], which IC50 [1] is on record?
The IC50 was 5 nM.

What about the IC50 [2] of the same compound?
The IC50 was 1800 nM.

What does the source list for `Cc1nn(C2CCOCC2)c2sc(C(=O)Nc3ccc(N4CCNC(=O)C4)cc3)cc12` [Example 342, 3-Methyl-N-[4(3-oxo-1-piperazinyl)phenyl]-1-tetrahydro-2H-pyran-4-yl-1H-thieno[2,3-c]pyrazole-5-carboxamide]?
IC50 [1]: 28 nM; IC50 [2]: 4600 nM

Which results are given for `Cc1nn(C2CCOCC2)c2sc(C(=O)N[C@H]3CC[C@H](C(=O)N(C)C)CC3)cc12` [Example 349, N-{trans-4-[(Dimethylamino)carbonyl]cyclohexyl}-3-methyl-1-tetrahydro-2H-pyran-4-yl-1H-thieno[2,3-c]pyrazole-5-carboxamide]?
IC50 [1]: 78 nM; IC50 [2]: 2800 nM

What does the source list for `CC(=O)N1CCN(C[C@H]2CC[C@H](NC(=O)c3cc4c(C)nn(C5CCOCC5)c4s3)CC2)CC1` [Example 360, N-{trans-4-[(4-Acetyl-1-piperazinyl)methyl]cyclohexyl}-3-methyl-1-tetrahydro-2H-pyran-4-yl-1H-thieno[2,3-c]pyrazole-5-carboxamide]?
IC50 [1]: 57 nM; IC50 [2]: 7900 nM

Which IC50 [1] does the source give for `Cc1nn(C2CCCCC2)c2sc(C(=O)Nc3ccc(N4CCC(O)CC4)nc3)cc12` [Example 370, 1-Cyclohexyl-N-[6-(4-hydroxy-1-piperidinyl)-3-pyridinyl]-3-methyl-1H-thieno[2,3-c]pyrazole-5-carboxamide] here?
The IC50 was 8.7 nM.

What about the IC50 [2] of the same compound?
The IC50 was 4100 nM.

How did the IC50 [1] turn out when `Cc1nn(C2CCCCC2)c2sc(C(=O)Nc3ccc(N4CCC(O)CC4)c(F)c3F)cc12` [Example 371, 1-Cyclohexyl-N-[2,3-difluoro-4-(4-hydroxy-1-piperidinyl)phenyl]-3-methyl-1H-thieno[2,3-c]pyrazole-5-carboxamide] was run?
The IC50 was 17 nM.

And the IC50 [2]?
The IC50 was 3600 nM.

For `Cc1cc(NC(=O)c2cc3c(C)nn(C4CCCCC4)c3s2)ccc1N1CCC(O)CC1` [Example 372], which IC50 [1] is on record?
The IC50 was 11 nM.

And the IC50 [2]?
Its IC50 is 4000 nM.

What does the source list for `Cc1nn(C2CCCCC2)c2sc(C(=O)Nc3ccc(N4CCC(O)CC4)c(C#N)c3)cc12` [Example 373, N-[3-Cyano-4-(4-hydroxy-1-piperidinyl)phenyl]-cyclohexyl-3-methyl-1H-thieno[2,3-c]pyrazole-5-carboxamide]?
IC50 [1]: 4.5 nM; IC50 [2]: 3400 nM

Which results are given for `Cc1nn(C2CCCCC2)c2sc(C(=O)Nc3ccc(N4CCC(O)CC4)c(C(=O)O)c3)cc12` [Example 375]?
IC50 [1]: 7.2 nM; IC50 [2]: 930 nM

`Cc1nn(C2CCCCC2)c2sc(C(=O)Nc3ccc(C(=O)N4CCC(O)CC4)nc3)cc12` [Example 378, 1-Cyclohexyl-N-{6-[(4-hydroxy-1-piperidinyl)carbonyl]-3-pyridinyl}-3-methyl-1H-thieno[2,3-c]pyrazole-5-carboxamide] was tested. Which IC50 [1] did it give?
The IC50 was 44 nM.

And the IC50 [2]?
The IC50 was 2500 nM.

With `Cc1nn(C2CCCCC2)c2sc(C(=O)Nc3ccc(C(=O)NCCO)nc3)cc12` [Example 379, 1-Cyclohexyl-N-(6-{[(2-hydroxyethyl)amino]carbonyl}-3-pyridinyl)-3-methyl-1H-thieno[2,3-c]pyrazole-5-carboxamide] as the compound, how does the IC50 [1] read?
Its IC50 is 13 nM.

And the IC50 [2]?
Its IC50 is 1200 nM.
